This note sets out measurements from patent US20140221429A1, “HETEROCYCLIC SCHIFF'S BASES AS NOVEL AND NEW ANTIGLYCATION AGENTS” (priority 2013, published 2014).

This series concerns the target T1, bovine serum albumin (BSA-methylglyoxal glycation) (Bos taurus, UniProt P02769).
T1 construct: purchased Merck Marker Pvt; Ltd. (Germany)
The experiment in a line: in vitro BSA-MG glycation model (antiglycation assay). It counts as biochemical. The settings on record: for inhibition at 1000 µM: read-out: inhibition of protein glycation. Here is the method: Bovine Serum Albumin (BSA) was purchased from Merck Marker Pvt. Ltd. (Germany), rutin and methylglyoxal (MG) (40% aqueous solution) were from Sigma Aldrich (Japan), sodium dihydrogen phosphate (NaH2PO4), disodium hydrogen phosphate (Na2HPO4) and sodium azide (NaN3) were purchased from Scharlau Chemie, S. A. (Spain), while dimethyl sulphoxide (DMSO) was purchased from Fischer Scientific (UK).
The total reaction volume of the assay was 200 μL, having final concentrations of 10 mg/mL BSA, 14 mM methylglyoxal, and 1 mM test compounds. 10 mg/mL solution of BSA and 14 mM methylglyoxal was prepared in 0.1 M phosphate buffer (pH 7.4), containing sodium azide (NaN3) (30 mM) as antimicrobial agent, while 1 mM solutions of test compounds were prepared in the DMSO. Assay was performed in triplicate. Each reaction mixtures were comprised of 50 μL BSA, 50 μL methylglyoxal, 20 μL test compound and 80 μL phosphate buffer (pH 7.4). The reaction mixture was incubated under aseptic conditions at 37° C. for 9 days.
After completion of nine days of incubation, each sample was examined for the development of specific fluorescence (excitation 330 nm; emission 420 nm) against blank on a microtitre plate reader (SpectraMax M2, Molecular Devices, CA, USA).
The percent inhibition of AGE formation by the test sample versus control was calculated by using the following formula:
% Inhibition=([…]−Fluorescence of test sample/Fluorescence of the control)×100
The IC50 (i.e. the concentration of test samples that inhibit the process of glycation to 50%) was determined by monitoring the effect of various concentrations (ranges from 1000-50 μM) of test compounds. The IC50 values were calculated by using EZ-FIT Enzyme Kinetics Program (Perrella Scientific Inc., Amherst, USA). The antiglycation potential of test compounds was compared with rutin, which was used as standard inhibitor.

The mark [1] stands for this setting: Antiglycation Studies IC50 ± SEM, BSA-MG model, 10 mg/mL BSA, 14 mM methylglyoxal, 37° C., 9 days, fluorescence ex 330/em 420 nm.

Where “and” joins values, the source holds several entries; their conditions need not be identical. Equal entries are not always repeated. Where two headings read alike, the source gives them in different places. Where only a bound is given, the exact number is not on record here.

T1 sequence (P02769 25-607): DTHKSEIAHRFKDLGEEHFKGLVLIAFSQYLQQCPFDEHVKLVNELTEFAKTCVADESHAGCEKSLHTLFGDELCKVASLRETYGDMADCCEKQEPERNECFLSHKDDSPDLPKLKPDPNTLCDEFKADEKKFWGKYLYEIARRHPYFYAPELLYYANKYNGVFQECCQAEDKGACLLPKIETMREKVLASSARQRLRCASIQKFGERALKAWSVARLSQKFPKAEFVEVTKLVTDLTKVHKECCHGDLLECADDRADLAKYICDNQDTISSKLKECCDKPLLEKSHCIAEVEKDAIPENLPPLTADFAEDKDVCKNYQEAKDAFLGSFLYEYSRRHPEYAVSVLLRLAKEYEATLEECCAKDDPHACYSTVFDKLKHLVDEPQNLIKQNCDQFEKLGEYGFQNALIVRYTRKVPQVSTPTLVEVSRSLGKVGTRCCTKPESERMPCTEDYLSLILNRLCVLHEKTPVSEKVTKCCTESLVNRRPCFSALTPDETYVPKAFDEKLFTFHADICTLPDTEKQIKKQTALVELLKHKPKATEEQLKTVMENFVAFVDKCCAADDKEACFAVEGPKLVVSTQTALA

A word on the inhibition: it is how much of the control response was suppressed. Turning to `O=C(NN=Cc1cccc([N+](=O)[O-])c1)c1ccccc1` [Compound 1, N′-(3-Nitrobenzylidene)benzohydrazide], the “Antiglycation Studies IC50 ± SEM” value is reported as “Inactive”, the “antiglycation activity (in words)” value is “inactive” and the inhibition at 1000 µM is < 50%.
The matching figures for `O=C(NN=Cc1ccccc1[N+](=O)[O-])c1ccccc1` [Compound 2, N′-(2-Nitrobenzylidene)benzohydrazide]: “Inactive”, “inactive” and < 50%.
As a reminder, the IC50 is the midpoint of a concentration-inhibition curve. Under setting [1], `O=C(NN=Cc1ccco1)c1cccs1` [Compound 3, 2-Thiophenecarboxylic acid, (2-furanylmethylene)hydrazide (9CI)] came in with an IC50 of 520.8 ± 1.8 µM. For the same compound, the “antiglycation activity (in words)” value (BSA-MG model) is reported as “moderate inhibition”.
Take `Cc1ccc(C=NNC(=O)c2cccs2)o1` [Compound 4, 2-Thiophencarboxylic acid, [(5-methyl-2-furanyl)methylene] hydrazide (9CI)]: the IC50 worked out at 442.8 ± 0.68 µM (Antiglycation IC50 (unit printed as μ), BSA-MG model assay) and 442.8 ± 0.68 µM under setting [1]. Besides, the “antiglycation activity (in words)” value (BSA-MG model) was “moderate inhibition”.
Compound `C(=NNc1ccccn1)c1ccccn1` [Compound 5, 1,3-Bis(2′-pyridyl)-1,2-diazapropen-2-ene] gave an IC50 under setting [1] of 397.2 ± 2.2 µM.
On the same count and under the same terms, then `C(=Nc1ccc(Cc2ccc(N=Cc3ccccn3)cc2)cc1)c1ccccn1` [Compound 6, Bis[4-(2-pyridylmethyleneamino)phenyl]methane], with 862.8 ± 3.3 µM.
Take `C[C@@H]1O[C@@H](OC[C@H]2O[C@@H](Oc3c(-c4ccc(O)c(O)c4)oc4cc(O)cc(O)c4c3=O)[C@H](O)[C@@H](O)[C@@H]2O)[C@H](O)[C@H](O)[C@H]1O` [Rutin, reference compound]: the IC50 (BSA-MG model, 10 mg/mL BSA, 14 mM methylglyoxal, 37° C., 9 days, fluorescence ex 330/em 420 nm, read-out: Antiglycation Studies IC50 ± SEM) is 294 µM and 295 µM.
